# Like-named read-outs stand apart in the source and are kept apart here.
# What was measured:
# [1] = target: T1, human 5-HT2AR (Homo sapiens, UniProt P28223); assay: radioligand binding (NIMH PDSP); conditions: recombinant, stably expressed human receptor; clemizole analogues
# Protocol: (§1) All in vitro binding assay and Ki data studies were performed by the US National Institute of Mental Health Psychoactive Drug Screening Program (NIMH PDSP). For these studies, drugs were screened against recombinant, stably expressed human 5-HT2AR, 5-HT2BR, 5-HT2CR and H1, as described at https://pdspdb.unc.edu/pdspWeb/ ([Besnard et al., 2012]).
# [2] = target: T2, human 5-HT2BR (Homo sapiens, UniProt P41595); assay: radioligand binding (NIMH PDSP); conditions: recombinant, stably expressed human receptor; clemizole analogues; read-out: Ki 5-HT2BR
# Protocol: as §1
# [3] = target: T3, human 5-HT2CR (Homo sapiens, UniProt P28335); assay: radioligand binding (NIMH PDSP); conditions: recombinant, stably expressed human receptor; clemizole analogues
# T3 sequence (P28335 33-458): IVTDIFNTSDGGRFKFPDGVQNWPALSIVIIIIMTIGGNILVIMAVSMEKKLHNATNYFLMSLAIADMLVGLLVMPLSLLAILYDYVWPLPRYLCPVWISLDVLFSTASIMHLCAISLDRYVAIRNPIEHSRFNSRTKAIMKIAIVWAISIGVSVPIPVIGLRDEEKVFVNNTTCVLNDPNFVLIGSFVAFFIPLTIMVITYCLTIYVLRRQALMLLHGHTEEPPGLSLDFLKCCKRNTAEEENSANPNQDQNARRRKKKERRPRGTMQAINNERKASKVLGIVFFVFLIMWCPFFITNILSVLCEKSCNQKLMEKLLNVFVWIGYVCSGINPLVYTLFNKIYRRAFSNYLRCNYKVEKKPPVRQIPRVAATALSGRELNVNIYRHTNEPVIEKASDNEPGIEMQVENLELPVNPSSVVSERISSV
# Protocol: as §1
# [4] = target: T4, human H1 (Homo sapiens, UniProt P35367); assay: radioligand binding (NIMH PDSP); conditions: recombinant, stably expressed human receptor; clemizole analogues; read-out: Ki H1
# Protocol: as §1
# [5] = test system: human 5-HT2R; assay: radioligand binding (NIMH PDSP), any 5-HT2R subtype; conditions: 5-HT2AR, 5-HT2BR, 5-HT2CR
# Protocol: as §1
# Additionally, 5-HT2R modulating compounds exert antiepileptic activity in both preclinical ([Sourbron et al., 2016]; [Griffin et al., 2017]) and clinical studies ([Griffin et al., 2017]; [Schoonjans et al., 2017]; [Kauppila et al., 2018]). […] […].
# [6] = target: T1, human 5-HT2AR; conditions: known drugs of Table 1; reference not given; read-out: Ki 5-HT2A, Table 1 known drugs; cited from earlier work
# [7] = target: T2, human 5-HT2BR; conditions: known drugs of Table 1; reference not given; read-out: Ki 5-HT2B, Table 1 known drugs; cited from earlier work
# [8] = target: T3, human 5-HT2CR; conditions: known drugs of Table 1; reference not given; read-out: Ki 5-HT2C, Table 1 known drugs; cited from earlier work
# [9] = target: T4, human H1; conditions: known drugs of Table 1; reference not given; read-out: Ki Histamine H1, Table 1 known drugs; cited from earlier work
# [10] = target: 5-HT1A; conditions: known drugs of Table 1; reference not given; cited from earlier work
# [11] = target: 5-HT1B; conditions: known drugs of Table 1; reference not given; cited from earlier work
# [12] = target: 5-HT1D; conditions: known drugs of Table 1; reference not given; cited from earlier work
# [13] = target: 5-HT6; conditions: known drugs of Table 1; reference not given; cited from earlier work
# [14] = target: 5-HT7; conditions: known drugs of Table 1; reference not given; cited from earlier work
# [15] = target: Histamine H3; conditions: known drugs of Table 1; reference not given; cited from earlier work
# [16] = target: Norepinephrine transporter; conditions: known drugs of Table 1; reference not given; cited from earlier work
# [17] = target: 5-HT5; conditions: known drugs of Table 1; reference not given; cited from earlier work
# [18] = target: 5-HT transporter; conditions: known drugs of Table 1; reference not given; cited from earlier work
# [19] = target: Adrenergic alpha1B; conditions: known drugs of Table 1; reference not given; cited from earlier work
# [20] = target: DOPAMINE D2; conditions: known drugs of Table 1; reference not given; cited from earlier work
# [21] = target: Dopamine transporter; conditions: known drugs of Table 1; reference not given; cited from earlier work
# [22] = target: Histamine H2; conditions: known drugs of Table 1; reference not given; cited from earlier work
# [23] = target: Adrenergic alpha1A; conditions: read-out: Ki Adrenergic alpha1A; known drugs of Table 1; reference not given; cited from earlier work
# [24] = target: Adrenergic alpha2A; conditions: read-out: Ki Adrenergic alpha2A; known drugs of Table 1; reference not given; cited from earlier work
# [25] = target: Adrenergic alpha2B; conditions: read-out: Ki Adrenergic alpha2B; known drugs of Table 1; reference not given; cited from earlier work
# [26] = target: Adrenergic alpha2C; conditions: read-out: Ki Adrenergic alpha2C; known drugs of Table 1; reference not given; cited from earlier work
# [27] = target: Adrenergic beta1; conditions: read-out: Ki Adrenergic beta1; known drugs of Table 1; reference not given; cited from earlier work
# [28] = target: Adrenergic beta2; conditions: read-out: Ki Adrenergic beta2; known drugs of Table 1; reference not given; cited from earlier work
# [29] = target: DOPAMINE D1; conditions: read-out: Ki DOPAMINE D1; known drugs of Table 1; reference not given; cited from earlier work
# [30] = target: DOPAMINE D4; conditions: read-out: Ki DOPAMINE D4; known drugs of Table 1; reference not given; cited from earlier work
# [31] = target: DOPAMINE D5; conditions: read-out: Ki DOPAMINE D5; known drugs of Table 1; reference not given; cited from earlier work
# [32] = test system: scn1lab mutant zebrafish; assay: locomotion (mean swim velocity) seizure-like behaviour assay in scn1lab mutant zebrafish larvae; format: in vivo, Danio rerio; conditions: three concentrations; 30 and 90 min exposure
# Protocol: For locomotion studies, zebrafish larvae (5 days post-fertilization) were placed into a single well of a clear flat-bottomed 96-well microplate containing embryo media. Sex determination is not possible at this stage of development. All drug screening experiments were conducted in an unbiased manner by investigators blinded to the test compounds and all files coded for post hoc analysis. The 96-well plate containing larvae was then placed inside a DanioVision box where they were allowed to acclimate (20 min; room temperature). EthoVision XT software (DanioVision, Noldus Information Technology) was used to obtain locomotion plots (10 min in duration). Seizure scoring was performed, as described ([Baraban et al., 2005]). All locomotion plots were analysed for distance travelled (in millimetres) and mean velocity (in millimetres per second). After 90 min of drug exposure larvae were examined for toxic side-effects. Compounds that decreased or stopped the larva heartbeat, or reduced or eliminated the escape response when touched, were considered toxic.
# For behaviour analysis, the threshold for a change in mean swim velocity ≥40% is considered significant (>1.5× SD of 250 control treated scn1lab). Unless otherwise indicated, all data in this manuscript are presented as the mean ± standard error of the mean. […] Statistically significant differences are indicated with asterisks (*P < 0.05; **P < 0.01; ***P < 0.001). […]
# [33] = test system: scn1lab mutant zebrafish; assay: local field potential (LFP) electrophysiology, electrographic seizure events; format: in vivo, Danio rerio; conditions: 250 µM; 10 min recording epoch
# Protocol: Using a glass micro-electrode positioned under an upright microscope, local field potential (LFP) recordings were obtained from forebrain or optic tectum structures, as described ([Baraban et al., 2005]). Agarose-embedded LFP recording sessions (10 min in duration) were obtained using Axoclamp software (Molecular Devices; Sunnyvale, CA, USA) and sampled at 1 kHz. Epileptiform events were identified post hoc. These were classified as multi-spike or poly-spike upward or downward membrane deflections greater than 3× baseline noise level and 150–250 ms in duration (interictal-like) or greater than 5× baseline noise, multi-spike and >500 ms in duration (ictal-like); both events were counted using threshold detection settings in Clampfit (Molecular Devices; Sunnyvale, CA, USA). Agarose-embedded larvae were continuously monitored for blood flow and heart rate using an Axiocam digital camera at video frame rate.
# Monitoring electrographic brain activity to confirm seizure suppression is an essential assay to eliminate false positives from behavioural testing ([Griffin et al., 2018]). By placing a micro-electrode into a visually identified brain region of an agar-immobilized zebrafish larval, stable LFP recordings can be monitored for several hours ([Baraban, 2013]). At 5 days post-fertilization, LFP recordings of scn1Lab zebrafish larvae show an average of 250 abnormal electrographic seizure events during a 10 min recording epoch.
# T1 sequence (P28223 whole entry): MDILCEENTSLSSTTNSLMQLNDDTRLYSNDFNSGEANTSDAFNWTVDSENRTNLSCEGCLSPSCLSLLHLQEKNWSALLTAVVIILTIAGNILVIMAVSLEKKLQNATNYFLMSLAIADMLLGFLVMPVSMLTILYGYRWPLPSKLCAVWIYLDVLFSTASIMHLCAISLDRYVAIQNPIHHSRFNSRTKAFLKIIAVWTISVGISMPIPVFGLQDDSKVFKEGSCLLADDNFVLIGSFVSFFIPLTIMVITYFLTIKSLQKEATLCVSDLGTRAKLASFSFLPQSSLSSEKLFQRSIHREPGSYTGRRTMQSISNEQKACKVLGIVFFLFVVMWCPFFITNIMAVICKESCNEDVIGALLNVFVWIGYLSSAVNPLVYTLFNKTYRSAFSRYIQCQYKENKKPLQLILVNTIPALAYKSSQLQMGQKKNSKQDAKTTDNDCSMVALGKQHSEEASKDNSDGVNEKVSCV
# T2 sequence (P41595 whole entry): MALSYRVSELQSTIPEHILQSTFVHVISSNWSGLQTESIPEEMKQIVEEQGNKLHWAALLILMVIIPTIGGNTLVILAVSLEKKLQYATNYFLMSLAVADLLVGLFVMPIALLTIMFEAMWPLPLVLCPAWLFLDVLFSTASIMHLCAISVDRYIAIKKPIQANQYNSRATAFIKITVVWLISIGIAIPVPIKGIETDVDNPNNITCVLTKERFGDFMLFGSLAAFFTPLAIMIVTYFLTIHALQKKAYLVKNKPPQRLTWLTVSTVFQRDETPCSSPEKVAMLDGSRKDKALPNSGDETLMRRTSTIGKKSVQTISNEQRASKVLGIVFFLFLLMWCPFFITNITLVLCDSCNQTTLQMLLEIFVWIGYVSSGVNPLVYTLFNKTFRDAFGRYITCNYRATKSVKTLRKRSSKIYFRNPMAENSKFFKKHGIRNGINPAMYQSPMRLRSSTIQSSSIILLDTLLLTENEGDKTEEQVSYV
# T4 sequence (P35367 whole entry): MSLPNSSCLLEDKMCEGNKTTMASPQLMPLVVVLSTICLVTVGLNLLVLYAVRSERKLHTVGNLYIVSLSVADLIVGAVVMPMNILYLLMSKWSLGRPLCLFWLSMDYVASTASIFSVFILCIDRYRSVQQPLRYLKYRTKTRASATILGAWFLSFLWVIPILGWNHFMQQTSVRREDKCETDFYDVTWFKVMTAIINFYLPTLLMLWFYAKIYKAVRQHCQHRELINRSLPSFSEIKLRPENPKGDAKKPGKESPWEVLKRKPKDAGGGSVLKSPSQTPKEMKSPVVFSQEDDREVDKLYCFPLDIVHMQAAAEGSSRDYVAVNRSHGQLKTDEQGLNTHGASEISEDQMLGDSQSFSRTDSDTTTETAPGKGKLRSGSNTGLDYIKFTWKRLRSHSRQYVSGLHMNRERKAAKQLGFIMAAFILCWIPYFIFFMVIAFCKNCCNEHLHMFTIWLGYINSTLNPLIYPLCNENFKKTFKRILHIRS
smiles,measurement,setting,value
FC1(F)CCC(Cn2c(CN3CCCC3)nc3ccccc32)CC1 [Compound 17],Ki,[1],> 10 µM
same,Ki,[2],> 10 µM
same,Ki,[3],> 10 µM
same,Ki,[4],0.137 µM
same,binding to any human 5-HT2R,[5],no significant binding
Clc1ccc(Cn2c(CN3CCCC3)nc3ccccc32)cc1 [clemizole],Ki,[6],0.239 µM
same,Ki,[7],0.025 µM
same,Ki,[8],0.197 µM
same,Ki,[9],0.0013 µM
same,Ki,[10],> 10 µM
same,Ki,[11],> 10 µM
same,Ki,[12],> 10 µM
same,Ki,[13],> 10 µM
same,Ki,[14],> 10 µM
same,Ki,[15],0.402 µM
same,Ki,[16],> 10 µM
C[C@H]1CNCCc2ccc(Cl)cc21 [lorcaserin],Ki,[10],0.7 µM
same,Ki,[17],3.71 µM
same,Ki,[13],1.98 µM
same,Ki,[14],0.636 µM
same,Ki,[18],0.99 µM
same,Ki,[19],> 10 µM
same,Ki,[20],> 10 µM
same,Ki,[21],> 10 µM
same,Ki,[22],> 10 µM
same,Ki,[16],1.4 µM
same,Ki,[23],> 10 µM
same,Ki,[24],> 10 µM
same,Ki,[25],> 10 µM
same,Ki,[26],> 10 µM
same,Ki,[27],> 10 µM
same,Ki,[28],> 10 µM
same,Ki,[29],> 10 µM
same,Ki,[30],> 10 µM
same,Ki,[31],> 10 µM
"CC(N)Cc1ccc2ccoc2c1 (centres unmarked) [Compound 6-APB, 6-(2-aminopropyl)benzofuran]","effect on seizure-like swim behaviour, commercially available compounds",[32],suppressed convulsive swim behaviours in a concentration-dependent manner
same,effect on frequency of electrographic seizure events (LFP),[33],significantly suppressed the frequency of electrographic seizure events
same,Ki,[6],1.93 µM
same,Ki,[10],1.28 µM
same,Ki,[14],0.155 µM
same,Ki,[18],2.7 µM
